In patent publication US10696634B2, “Pyridine compounds as fungicides” (BASF SE, priority 2015, dated 2020):

Assays:
[1] = test system: Botrytis cinerea; test: Microtiterplate test against grey mold Botrytis cinerea; format: cell-based; settings: comparative example, 405 nm 9 days after inoculation
[2] = test system: Leptosphaeria nodorum; test: Microtiterplate test against wheat leaf spots caused by Leptosphaeria nodorum; format: cell-based; settings: comparative example, 405 nm 9 days after inoculation

Row | SMILES | Growth (%) at 31 ppm [1] | Growth (%) at 31 ppm [2]
1 | COC(C)c1c(F)cccc1Oc1cnc(C)c(C)c1 (stereo not shown) [State of the art] | 58% | 68%
2 | CCOC(C)c1c(F)cccc1Oc1cnc(C)c(C)c1 (stereo not shown) [Example I-16] | 34% | 40%
